In patent US9872499B2, “Virus-inactivating composition containing low-molecular weight compound and arginine” (priority 2010, dated 2018):

What was measured:
[1] = system: herpes simplex virus type 1 (HSV-1) strain F; assay: Virus inactivating reaction with HSV-1 in sample solution, remaining infectious virus by plaque assay; assay type: cell-based
[2] = system: influenza virus A/Aichi (H3N2); assay: Virus inactivating reaction with influenza virus A in sample solution, remaining infectious virus by plaque assay; assay type: cell-based; conditions: for Relative Inactivating Efficiency: relative to 0.01% CAE alone
[3] = 0.1 mM catechin compound alone, pH 4.0, 30° C. 5 min
[4] = 0.1 mM catechin compound, 0 M arginine, pH 4.0, relative to 0.1 mM of the same compound alone
[5] = 0.1 mM catechin compound, 0.2 M arginine, pH 4.0, relative to 0.1 mM of the same compound alone
[6] = 0.5 mM catechin compound, 0 M arginine, pH 4.0, relative to 0.1 mM of the same compound alone

## O=C(O[C@@H]1Cc2c(O)cc(O)cc2O[C@@H]1c1ccc(O)c(O)c1)c1cc(O)c(O)c(O)c1 [(−)epicatechin gallate]
[1]; [3]
  remaining viral titer, % of the viral amount before inactivation: 0.04%
[1]; [4]
  Relative Inactivating Efficiency: 1 times
[1]; [5]
  Relative Inactivating Efficiency: 59 times
[1]; [6]
  Relative Inactivating Efficiency: 27 times

## N=C(N)NCCC[C@H](N)C(=O)O [Arginine, arginine]
[1]; 0% CAE, 0.058 M arginine alone, pH 4.0, 10 mM sodium citrate, relative to 0.005% CAE alone
  Relative Inactivating Efficiency: 0.03 times
[1]; pH 4
  Relative Inactivating Efficiency: 1075 times

## O=C(/C=C/c1ccc(O)c(O)c1)OCCc1ccccc1 [Caffeic acid phenethyl ester, caffeic acid phenethyl ester]
[1]; 0.01 mM caffeic acid phenethyl ester alone, pH 4.0, 30° C. 5 min
  remaining viral titer, % of that obtained before inactivation: 0.3%
[1]; 0.01 mM caffeic acid phenethyl ester, 0 M arginine, pH 4.0, relative to 0.01 mM compound alone
  Relative Inactivating Efficiency: 1 times
[1]; 0.01 mM caffeic acid phenethyl ester, 0.2 M arginine, pH 4.0, relative to 0.01 mM compound alone
  Relative Inactivating Efficiency: 8 times
[1]; 0.05 mM caffeic acid phenethyl ester, 0 M arginine, pH 4.0, relative to 0.01 mM compound alone
  Relative Inactivating Efficiency: 1 times
[1]; 0.05 mM caffeic acid phenethyl ester, 0.2 M arginine, pH 4.0, relative to 0.01 mM compound alone
  Relative Inactivating Efficiency: 122 times
[1]; 0.1 mM caffeic acid phenethyl ester, 0 M arginine, pH 4.0, relative to 0.01 mM compound alone
  Relative Inactivating Efficiency: 1 times
[1]; 0.1 mM caffeic acid phenethyl ester, 0.2 M arginine, pH 4.0, relative to 0.01 mM compound alone
  Relative Inactivating Efficiency: >243 times
[1]; 0.1 mM caffeic acid phenethyl ester, 0.2 M arginine, pH 4.0, relative to 0.01 mM compound alone, listed as caffeic acid phenethyl ester
  Relative Inactivating Efficiency: more than 243 times

## O=C(O)/C=C/c1ccc(O)c(O)c1 [Caffeic acid, caffeic acid]
[1]; 0.1 mM caffeic acid alone, pH 4.0 (Comparative Example 2)
  viral titer after inactivation, % of that before inactivation: 0.13%
[1]; 0.1 mM caffeic acid alone, pH 4.0, 30° C. 5 min (Example 1)
  viral titer after inactivation, % of the viral amount before inactivation: 0.3%
[1]; 0.1 mM caffeic acid, 0 M NaCl, pH 4.0, 20 mM sodium acetate, relative to 0.1 mM caffeic acid alone
  Relative Inactivating Efficiency: 1 times
[1]; 0.1 mM caffeic acid, 0 M arginine, pH 4.0, 30° C. 5 min, relative to 0.1 mM caffeic acid alone
  Relative Inactivating Efficiency: 1 times
[1]; 0.1 mM caffeic acid, 0.2 M NaCl, pH 4.0, relative to 0.1 mM caffeic acid alone
  Relative Inactivating Efficiency: 0.010 times
[1]; 0.1 mM caffeic acid, 0.2 M NaCl, pH 4.0, relative to 0.1 mM caffeic acid alone, listed as caffeic acid
  Relative Inactivating Efficiency: 0.01 times
[1]; 0.1 mM caffeic acid, 0.2 M arginine, pH 4.0, 30° C. 5 min, relative to 0.1 mM caffeic acid alone
  Relative Inactivating Efficiency: 1.5 times
[1]; 0.5 mM caffeic acid, 0 M arginine, pH 4.0, 30° C. 5 min, relative to 0.1 mM caffeic acid alone
  Relative Inactivating Efficiency: 1.3 times
[1]; 0.5 mM caffeic acid, 0.2 M NaCl, pH 4.0, relative to 0.1 mM caffeic acid alone
  Relative Inactivating Efficiency: 0.009 times
[1]; 0.5 mM caffeic acid, 0.2 M arginine, pH 4.0, 30° C. 5 min, relative to 0.1 mM caffeic acid alone
  Relative Inactivating Efficiency: 3.3 times
[1]; 1 mM caffeic acid, 0 M arginine, pH 4.0, 30° C. 5 min, relative to 0.1 mM caffeic acid alone
  Relative Inactivating Efficiency: 1.4 times
[1]; 1.0 mM caffeic acid, 0.2 M NaCl, pH 4.0, relative to 0.1 mM caffeic acid alone
  Relative Inactivating Efficiency: 0.007 times
[1]; 1 mM caffeic acid, 0.2 M arginine, pH 4.0, 30° C. 5 min, relative to 0.1 mM caffeic acid alone
  Relative Inactivating Efficiency: 7.8 times

## O=C1O[C@H]([C@@H](O)CO)C(=O)C1=O [Dehydroascorbic acid, dehydroascorbic acid]
[1]; 0.1 mM dehydroascorbic acid alone, pH 4.0, 30° C. 5 min
  remaining viral titer, % of the viral amount before inactivation: 7.3%
[1]; 0.1 mM dehydroascorbic acid, 0 M arginine, pH 4.0, relative to 0.1 mM compound alone
  Relative Inactivating Efficiency: 1 times
[1]; 0.1 mM dehydroascorbic acid, 0.2 M arginine, pH 4.0, relative to 0.1 mM compound alone
  Relative Inactivating Efficiency: 248 times
[1]; 1 mM dehydroascorbic acid, 0 M arginine, pH 4.0, relative to 0.1 mM compound alone
  Relative Inactivating Efficiency: 1 times
[1]; 1 mM dehydroascorbic acid, 0.2 M arginine, pH 4.0, relative to 0.1 mM compound alone
  Relative Inactivating Efficiency: 1440 times
[1]; 10 mM dehydroascorbic acid, 0 M arginine, pH 4.0, relative to 0.1 mM compound alone
  Relative Inactivating Efficiency: 1 times
[1]; 10 mM dehydroascorbic acid, 0.2 M arginine, pH 4.0, relative to 0.1 mM compound alone
  Relative Inactivating Efficiency: >7200 times
[1]; 10 mM dehydroascorbic acid, 0.2 M arginine, pH 4.0, relative to 0.1 mM compound alone, listed as dehydroascorbic acid
  Relative Inactivating Efficiency: more than 7200 times

## [Cl-].[Na+] [NaCl, reference compound]
[1]; pH 4
  Relative Inactivating Efficiency: 0.011 times

## (−)epigallocatechin gallate
[1]; [3]
  remaining viral titer, % of the viral amount before inactivation: 0.02%
[1]; [4]
  Relative Inactivating Efficiency: 1 times
[1]; [5]
  Relative Inactivating Efficiency: 12 times
[1]; [6]
  Relative Inactivating Efficiency: 268 times

## cocoyl arginine ethyl ester [CAE]
[2]; 0.01% CAE alone, pH 4.8, 30° C. 5 min
  viral titer after inactivation, % of that before inactivation: 3.1%
[2]; 0.01% CAE, 0 M arginine, pH 4.8, 10 mM sodium citrate
  Relative Inactivating Efficiency: 1 Times
[2]; 0.01% CAE, 0.115 M arginine, pH 4.8
  Relative Inactivating Efficiency: 82 Times
[2]; 0.02% CAE, 0.115 M arginine, pH 4.8
  Relative Inactivating Efficiency: 63 Times
[1]; 0.005% CAE alone, pH 4.0, 30° C. 5 min
  viral titer after inactivation, % of that before inactivation: 0.4%
[1]; 0.005% CAE, 0 M arginine, pH 4.0, 10 mM sodium citrate, relative to 0.005% CAE alone
  Relative Inactivating Efficiency: 1 times
[1]; 0.005% CAE, 0.058 M arginine, pH 4.0, relative to 0.005% CAE alone
  Relative Inactivating Efficiency: 1.13 times
[1]; 0.005% CAE, 0.115 M arginine, pH 4.0, relative to 0.005% CAE alone
  Relative Inactivating Efficiency: 20 times
